Earlier results on one substance are cited in patent US20080233144A1, “Use of the Mushroom Agaricus Blazei Murill for the Production of Medicaments Suitable for Treating Infections and Allergies” (priority 2004, published 2008).

This data set relates to Streptococcus pneumoniae serotype 6B. The note with it: previous experiments.

On to β-glucan, for which the “effect in the pneumococcus infection model when given via gavage” value is on record as “did not have any effect”.
